Assay results as given in paper PMC11642016 (International Journal of Molecular Sciences, 2024).
“And” between values parts separate entries of the source, which are not always exact repeats. Equal values may be shown once. Read-outs that look alike come from different tables or passages of the source.

How the values were obtained:
PANC-1 cells = experiment: CellTiter-Glo luminescent cell viability assay, PANC-1; details: for viability at 2.8 µM: read-out: Cell Viability (% of Control) 2.8 µM, PANC-1; for viability at 2.8 µM / viability at 8.3 µM / viability at 25 µM: mean ± SD, n = 2; for viability at 8.3 µM: read-out: Cell Viability (% of Control) 8.3 µM, PANC-1; for viability at 25 µM: read-out: Cell Viability (% of Control) 25 µM, PANC-1
Protocol: Primary fibroblast cultures were prepared from human skin biopsies and maintained in DMEM supplemented with 10% FBS, 1% penicillin-streptomycin, and 1% MEM Non-Essential Amino Acids Solution (Thermo Fisher Scientific). […] All cell lines were cultured in a humidified atmosphere at 37 °C and 5% CO2, passaged twice a week, and the experiments were performed on cells between passage 5 and 15. The cell lines were routinely screened for the absence of mycoplasma infection (DAPI staining).
The effects of the synthesized compounds on cell viability were measured using the CellTiter-Glo® luminescent cell viability assay (Promega, Madison, WI, USA), according to the manufacturer’s instructions. Briefly, cells were seeded onto a flat-bottomed, white 96-well plate (BRANDplates, cat. no.: 781965)), with the following densities: PANC-1: 750 cells/well, Fadu: 2000 cells/well, primary fibroblasts: 2000 cells/well, HEK293T WT: 1000 cells/well, HEK293T CLPP^−/−: 2500 cells/well. After seeding, cells were incubated for a further 48 h before treatment. Cells were treated with the compounds for 72 h. Three concentrations (25.0 µM; 8.3 µM; 2.8 µM) were applied during the initial cell viability screening, while for the determination of dose–response curves, 1.5-fold serially diluted compound concentrations were applied (range: 26 µM–0.7 µM). After treatment, the luminescence signal was recorded using a microplate reader (BioTek Synergy 2 Multi-Mode Reader, BioTek, Winooski, VT, USA).
Data analysis was performed using GraphPad Prism 9.5.0 software (GraphPad Software, San Diego, CA, USA). […] The dose–response curves were generated by four-parameter nonlinear regression, and the IC50 values were determined as the means ± SEM of the best-fit values of 3 independent measurements. The R^2 values were consistently above 0.93, indicating a strong fit of the model to the experimental data (Supplementary S.89). […] Dunnett’s post hoc test was applied to adjust for multiple comparisons, minimizing the likelihood of false positive results. Assumptions for ANOVA, including normality (assessed via QQ plots) and homogeneity of variance (tested using the Brown–Forsythe test), were verified. The following significance levels were applied: * p < 0.05, ** p < 0.01, *** p < 0.001, **** p < 0.0001. […] The tumor selectivity of the compounds was quantitatively characterized by the selectivity index (SI). This parameter was calculated as the ratio of the average best-fit IC50 value for primary fibroblasts and the best-fit IC50 value for the corresponding tumor cells (PANC-1 or Fadu).

Fadu cells = experiment: CellTiter-Glo luminescent cell viability assay, Fadu; details: for viability at 2.8 µM: read-out: Cell Viability (% of Control) 2.8 µM, Fadu; for viability at 2.8 µM / viability at 8.3 µM / viability at 25 µM: mean ± SD, n = 2; for viability at 8.3 µM: read-out: Cell Viability (% of Control) 8.3 µM, Fadu; for viability at 25 µM: read-out: Cell Viability (% of Control) 25 µM, Fadu
PANC-1 and Fadu cells = experiment: CellTiter-Glo viability, statements covering both cancer cell lines; type: cell-based, human
[1] = CellTiter-Glo luminescent cell viability assay, primary fibroblasts; details: human, primary skin fibroblasts (non-tumorous), Primer fibroblast Cell viability (% of controll), 72 h, dose–response, individual replicates
[2] = test system: non-tumorous primary fibroblast cells; experiment: as above; details: 72 h; for Primer fibroblast Cell viability (% of controll): dose–response, individual replicates
[3] = Homo sapiens, PANC-1, 72 h, 72 h, first-set screening
[4] = Homo sapiens, PANC-1, 72 h, 72 h, second-set screening
[5] = Homo sapiens, FaDu, 72 h, 72 h, first-set screening
[6] = Homo sapiens, FaDu, 72 h, 72 h, second-set screening
[7] = 0.7 μM, 72 h, dose–response, individual replicates
[8] = 1 μM, 72 h, dose–response, individual replicates
[9] = 2.3 μM, 72 h, dose–response, individual replicates
[10] = 3.4 μM, 72 h, dose–response, individual replicates
[11] = 5.1 μM, 72 h, dose–response, individual replicates
[12] = 7.7 μM, 72 h, dose–response, individual replicates
[13] = 17.3 μM, 72 h, dose–response, individual replicates
[14] = 26 μM, 72 h, dose–response, individual replicates

NCC#Cc1cccc(CN2C(=O)C3=C(CCN(Cc4ccc(-n5cc(-c6ccccc6)nn5)cc4)C3)N3CCN=C23)c1 [2b]
viability at 2.8 µM (PANC-1 cells; [3]): 107 ± 1% | viability at 2.8 µM (PANC-1 cells; [4]): 113 ± 3% | viability at 8.3 µM (PANC-1 cells; [3]): 0% | viability at 8.3 µM (PANC-1 cells; [4]): 0% | viability at 25 µM (PANC-1 cells; [3]): 0% | viability at 25 µM (PANC-1 cells; [4]): 0% | viability at 2.8 µM (Fadu cells; [5]): 102 ± 8% | viability at 2.8 µM (Fadu cells; [6]): 117 ± 7% | viability at 8.3 µM (Fadu cells; [5]): 0% | viability at 8.3 µM (Fadu cells; [6]): 27 ± 12% | viability at 25 µM (Fadu cells; [5]): 0% | viability at 25 µM (Fadu cells; [6]): 0% | eradication of cancer cells at 8.3 µM (PANC-1 and Fadu cells; 8.3 µM, both PANC-1 and Fadu, first-set screening): practically complete eradication of both types of cancer cells | viability at 25 µM (PANC-1 and Fadu cells; Homo sapiens, 25 µM, in either of the cancer cell lines, read-out: drop in viability at 25 µM): 0 to 1%

CNCC#Cc1cccc(CN2C(=O)C3=C(CCN(Cc4ccc(-n5cc(-c6cc(F)cc(F)c6)nn5)cc4)C3)N3CCN=C23)c1 [43c]
PANC-1 Cell viability (% of controll) (PANC-1 cells; [7]): 110 % of controll and 102 % of controll | PANC-1 Cell viability (% of controll) (PANC-1 cells; [8]): 99 % of controll and 105 % of controll | PANC-1 Cell viability (% of controll) (PANC-1 cells; 1.5 μM, 72 h, dose–response, individual replicates): 103 % of controll | PANC-1 Cell viability (% of controll) (PANC-1 cells; [9]): 80 % of controll and 82 % of controll | PANC-1 Cell viability (% of controll) (PANC-1 cells; [10]): 5 % of controll and 8 % of controll | PANC-1 Cell viability (% of controll) (PANC-1 cells; [11]): 0 % of controll | PANC-1 Cell viability (% of controll) (PANC-1 cells; [12]): 0 % of controll | PANC-1 Cell viability (% of controll) (PANC-1 cells; [13]): 0 % of controll | PANC-1 Cell viability (% of controll) (PANC-1 cells; [14]): 0 % of controll | IC50 (PANC-1 cells; Homo sapiens, PANC-1, 72 h, read-out: IC50 Value ± SEM PANC-1, 72 h treatment, best-fit values, n = 3): 2.6 ± 0.03 µM | viability at 0.7 µM (PANC-1 cells; Homo sapiens, PANC-1, 72 h, read-out: PANC-1 Cell viability (% of controll), 0.7 μM, 72 h, dose–response, individual replicates): 104% | viability at 1 µM (PANC-1 cells; Homo sapiens, PANC-1, 72 h, read-out: PANC-1 Cell viability (% of controll), 1 μM, 72 h, dose–response, individual replicates): 104% | viability at 1.5 µM (PANC-1 cells; Homo sapiens, PANC-1, 72 h, read-out: PANC-1 Cell viability (% of controll), 1.5 μM, 72 h, dose–response, individual replicates): 100% | viability at 2.3 µM (PANC-1 cells; Homo sapiens, PANC-1, 72 h, read-out: PANC-1 Cell viability (% of controll), 2.3 μM, 72 h, dose–response, individual replicates): 89% | viability at 3.4 µM (PANC-1 cells; Homo sapiens, PANC-1, 72 h, read-out: PANC-1 Cell viability (% of controll), 3.4 μM, 72 h, dose–response, individual replicates): 6% | viability at 5.1 µM (PANC-1 cells; Homo sapiens, PANC-1, 72 h, read-out: PANC-1 Cell viability (% of controll), 5.1 μM, 72 h, dose–response, individual replicates): 0% | viability at 7.7 µM (PANC-1 cells; Homo sapiens, PANC-1, 72 h, read-out: PANC-1 Cell viability (% of controll), 7.7 μM, 72 h, dose–response, individual replicates): 0% | viability at 17.3 µM (PANC-1 cells; Homo sapiens, PANC-1, 72 h, read-out: PANC-1 Cell viability (% of controll), 17.3 μM, 72 h, dose–response, individual replicates): 0% | viability at 26 µM (PANC-1 cells; Homo sapiens, PANC-1, 72 h, read-out: PANC-1 Cell viability (% of controll), 26 μM, 72 h, dose–response, individual replicates): 0% | IC50 (PANC-1 cells; Homo sapiens, PANC-1, read-out: PANC-1 IC50 values, Mean, mean of independently fitted replicate IC50 values (Supplement S.6)): 2.63 µM | Selectivity Index (SI) Fibroblast/PANC-1 (PANC-1 cells; ratio of mean best-fit IC50 for primary fibroblasts and best-fit IC50 for PANC-1): 1.4 | Fadu Cell viability (% of controll) (Fadu cells; [7]): 99 % of controll and 100 % of controll | Fadu Cell viability (% of controll) (Fadu cells; [8]): 102 % of controll and 93 % of controll | Fadu Cell viability (% of controll) (Fadu cells; [9]): 90 % of controll and 79 % of controll | Fadu Cell viability (% of controll) (Fadu cells; [10]): 79 % of controll and 59 % of controll and 42 % of controll | Fadu Cell viability (% of controll) (Fadu cells; [11]): 0 % of controll | Fadu Cell viability (% of controll) (Fadu cells; [12]): 0 % of controll | Fadu Cell viability (% of controll) (Fadu cells; [13]): 0 % of controll | Fadu Cell viability (% of controll) (Fadu cells; [14]): 0 % of controll | viability at 0.7 µM (Fadu cells; Homo sapiens, FaDu, 72 h, read-out: Fadu Cell viability (% of controll), 0.7 μM, 72 h, dose–response, individual replicates): 94% | viability at 1 µM (Fadu cells; Homo sapiens, FaDu, 72 h, read-out: Fadu Cell viability (% of controll), 1 μM, 72 h, dose–response, individual replicates): 97% | viability at 1.5 µM (Fadu cells; Homo sapiens, FaDu, 72 h, read-out: Fadu Cell viability (% of controll), 1.5 μM, 72 h, dose–response, individual replicates): 90% | viability at 2.3 µM (Fadu cells; Homo sapiens, FaDu, 72 h, read-out: Fadu Cell viability (% of controll), 2.3 μM, 72 h, dose–response, individual replicates): 89% | viability at 5.1 µM (Fadu cells; Homo sapiens, FaDu, 72 h, read-out: Fadu Cell viability (% of controll), 5.1 μM, 72 h, dose–response, individual replicates): 0% | viability at 7.7 µM (Fadu cells; Homo sapiens, FaDu, 72 h, read-out: Fadu Cell viability (% of controll), 7.7 μM, 72 h, dose–response, individual replicates): 0% | viability at 17.3 µM (Fadu cells; Homo sapiens, FaDu, 72 h, read-out: Fadu Cell viability (% of controll), 17.3 μM, 72 h, dose–response, individual replicates): 0% | viability at 26 µM (Fadu cells; Homo sapiens, FaDu, 72 h, read-out: Fadu Cell viability (% of controll), 26 μM, 72 h, dose–response, individual replicates): 0% | IC50 (Fadu cells; Homo sapiens, FaDu, 72 h, read-out: IC50 Value ± SEM Fadu, 72 h treatment, best-fit values, n = 3): 3.6 ± 0.09 µM | IC50 (Fadu cells; Homo sapiens, FaDu, read-out: Fadu IC50 values, Mean, mean of independently fitted replicate IC50 values (Supplement S.6)): 3.48 µM | Selectivity Index (SI) Fibroblast/Fadu (Fadu cells; ratio of mean best-fit IC50 for primary fibroblasts and best-fit IC50 for Fadu): 1.0 | viability at 72 h, 0.7 µM ([1]; 0.7 μM): 91% | viability at 72 h, 1 µM ([1]; 1 μM): 92% | viability at 72 h, 2.3 µM ([1]; 2.3 μM): 103% | viability at 72 h, 3.4 µM ([1]; 3.4 μM): 80% | viability at 72 h, 5.1 µM ([1]; 5.1 μM): 0% | viability at 72 h, 7.7 µM ([1]; 7.7 μM): 0% | viability at 72 h, 17.3 µM ([1]; 17.3 μM): 0% | viability at 72 h, 26 µM ([1]; 26 μM): 0% | Primer fibroblast Cell viability (% of controll) ([2]; 0.7 μM): 98 % of controll and 102 % of controll | Primer fibroblast Cell viability (% of controll) ([2]; 1 μM): 104 % of controll and 106 % of controll | Primer fibroblast Cell viability (% of controll) ([2]; 1.5 μM): 99 % of controll and 95 % of controll and 118 % of controll | Primer fibroblast Cell viability (% of controll) ([2]; 2.3 μM): 97 % of controll and 98 % of controll | Primer fibroblast Cell viability (% of controll) ([2]; 3.4 μM): 95 % of controll and 99 % of controll | Primer fibroblast Cell viability (% of controll) ([2]; 5.1 μM): 0 % of controll | Primer fibroblast Cell viability (% of controll) ([2]; 7.7 μM): 0 % of controll | Primer fibroblast Cell viability (% of controll) ([2]; 17.3 μM): 0 % of controll | Primer fibroblast Cell viability (% of controll) ([2]; 26 μM): 0 % of controll | IC50 ([2]; Homo sapiens, Fibroblast, read-out: IC50 Value ± SEM Primary Fibroblast, 72 h treatment, best-fit values, n = 3): 3.7 ± 1.73 µM
